Consider 4 compounds from US20160297768A1, “NOVEL IMIDAZOLE DERIVATIVES AND THERAPEUTIC USE THEREOF” (INDUSTRY-ACA-DEMIC COORPERATION FOUNDATION, YONSEI …, priority 2013, published 2016).

SMILES strings stand for the structures.

The test system of test [1] is A549 cells. The experiment in a line: Apoptotic activity by MTT analysis, A549 cells. The following applies: Homo sapiens, A549, 12 h, 15 μM of the compound, mean±standard deviation, read-out: Apoptosis (%) A549 cells. It is filed as cell-based. As for the experimental part: (§1) Lung cancer cells (A549), colorectal cancer cells (HCT116), HeLa cells, liver cancer cells (HepG2), T-cell leukemia cells (Jurkat), myeloid leukemia cells (K562), breast cancer cells (MCF-7 and MDA-MB-231) and myelocytic leukemia cells ([…]) were obtained from the American Type Culture Collection (ATCC), and cultured in 10% fetal bovine serum (FBS), 50 units/mL penicillin and 50 units/mL streptomycin-added RPMI 1640 (Invitrogen). The cells were maintained in a humidified 37° C., 5% CO2 atmosphere. The anticancer activity was detected by MTT analysis. Each type of cancer cells were plated in triplicate in a 96-well microtiter plate, and cultured at 37° C. for 24 hours. The cells were treated with each of the compounds prepared above at 37° C. for 12 hours. After the culturing of the cells, 10 μL of an MTT reagent ((3-[4,5-dimethyl-2-thiazolyl]-2,5-diphenyl-2H-tetrazoliumbromide) was added to each well, and cultured for 3.5 hours. The absorbance of each sample was detected using a UV microplate reader (SpectraMax 340PC 384, Molecular Devices) at 570 nm. The detection results were measured as a mean value. The effect of each compound on apoptosis is shown in Table 1.
(§2) The A549 and HeLa cells were treated with 15 μM of the compound for 12 hours. The apoptosis was detected using MTT (mean±standard deviation).

The test system of test [2] is HeLa cells. The experiment in a line: Apoptotic activity by MTT analysis, HeLa cells. It is filed as cell-based. The following applies: Homo sapiens, HeLa, 12 h, 15 μM of the compound, mean±standard deviation, read-out: Apoptosis (%) HeLa cells. As for the experimental part:
as §1, §2

For `COc1ccc(-c2nc(-c3cc(C(F)(F)F)cc(C(F)(F)F)c3)n(Cc3ccc(C(=O)NCCCCCCCCCCN)cc3)c2-c2ccc(OC)cc2)cc1` [Example 197, N-(10-aminodecyl)-4-((2-(3,5-bis(trifluoromethyl)phenyl)-4,5-bis(4-methoxyphenyl)-1H-imidazole-1-yl)methyl)benzamide], the figures for the cytotoxicity at 15 µM in test [1] and in test [2] were 96 ± 0.54% and 97 ± 1.22%, respectively.

Turning to `COc1ccc(-c2nc(-c3cc(C(F)(F)F)cc(C(F)(F)F)c3)n(Cc3ccc(C(=O)NCCCOCCOCCCN)cc3)c2-c2ccc(OC)cc2)cc1` [Example 198, N-(3-(2-(3-aminopropoxy)ethoxy)propyl)-4-((2-(3,5-bis(trifluoromethyl)phenyl)-4,5-bis(4-methoxyphenyl)-1H-imidazole-1-yl)methyl)benzamide], the figures for the cytotoxicity at 15 µM in test [1] and in test [2] were 80 ± 1.43% and 83 ± 1.07%, respectively.

As for `COc1ccc(-c2nc(-c3cc(C(F)(F)F)cc(C(F)(F)F)c3)n(Cc3ccc(C(=O)NCCCCCCCCCCCN)cc3)c2-c2ccc(OC)cc2)cc1` [Example 199, N-(11-aminoundecyl)-4-((2-(3,5-bis(trifluoromethyl)phenyl)-4,5-bis(4-methoxyphenyl)-1H-imidazole-1-yl)methyl)benzamide], the cytotoxicity at 15 µM amounted to 89 ± 1.63% in test [1] and 93 ± 1.72% in test [2].

Take `COc1ccc(-c2nc(-c3cc(C(F)(F)F)cc(C(F)(F)F)c3)n(Cc3ccc(C(=O)NCCOCCOCCOCCN)cc3)c2-c2ccc(OC)cc2)cc1` [Example 200, N-(2-(2-(2-(2-aminoethoxy)ethoxy)ethoxy)ethyl)-4-((2-(3,5-bis(trifluoromethyl)phenyl)-4,5-bis(4-methoxyphenyl)-1H-imidazole-1-yl)methyl)benzamide]: the cytotoxicity at 15 µM in test [1] came to 85 ± 1.44%; in test [2], 87 ± 0.78%.
